Experimental data taken from patent US9682130B2 (priority 2015, dated 2017).
Converted amounts (≈) assume the structure as drawn. Like-named read-outs stand apart in the source and are kept apart here.

How the values were obtained:
[1] = Eye irritation, Draize scale (MMTS), Ad5/NZW rabbit ocular model; type: in vivo; conditions: NZW, rabbit, in vivo
Protocol: (§1) To conduct this in vivo assay, 25 NZW rabbit were anesthetized using the general anesthesia ketamine and xylazine and the topical anesthesia proparacaine. Each rabbit was then topically inoculated with 50 μL of Adenovirus serotype Ad5 (3×10^7 pfu/mL) in both eyes after corneal epithelial scarification (12 cross-hatched strokes of a 25 sterile needle). Eyes were closed and gently rubbed for 5 seconds to ensure contact of the virus on all ocular surfaces. Inoculation of both eyes allowed for the reduction in the number of animals needed without jeopardizing statistical validity. […] All topical solutions (37 μL drops) were instilled with an electronic pipette (EDP; Rainin, Oakland, Calif.) set in the multi-dispense mode. Ocular swabbing to recover adenovirus from tear film and corneal and conjunctival surfaces, after topical anesthesia with proparacaine, was performed at least 1 hour after the final dose on days 0, 1, 3, 4, 5, 7, 9, 11, and 14 after inoculation. The ocular samples from each eye was placed individually into tubes containing 1 mL of medium and were frozen at −70° C. pending viral plaque assay.
The animals were assayed for eye irritation using a Draize scale for ocular lesions. Classification of eye irritation was evaluated for both eyes of each rabbit on day 3 and day 9 using the maximum mean total score (MMTS; Table 4). See, e.g., Kay and Calandra, Interpretation of Eye Irritation Tests, J. Soc. Cos. Chem. 13: 281-289 (1962), the content of which is hereby incorporated by reference in its entirety. The MMTS score used was as follows: 0.0-0.5, Non-Irritating (N); 0.6-2.5, Practically Non-Irritating (PN); 2.6-15.0, Minimally Irritating (M1); 15.1-25.0, Mildly Irritating (M2); 25.1-50.0, Moderately Irritating (M3); 50.1-80.0, Severely Irritating (S); 80.1-100.0, Extremely Irritating (E); and 100.1-110.0, Maximally Irritating (Mx).

[2] = tested on: Adenovirus serotype Ad5; assay: Ad5/NZW rabbit ocular replication model, plaque assay of ocular samples; type: in vivo; conditions: 0.5% Cidofovir, twice daily 7 days
Protocol: See, e.g., Romanowski, et al., The In Vitro and In Vivo Evaluation of ddC as a Topical Antiviral for Ocular Adenovirus Infections, Invest. Ophthalmol. Vis. Sci. 50: 5295-5299 (2009), which is hereby incorporated by reference in its entirety.
as §1, with “surfaces.” for “surfaces. Inoculation of both eyes allowed for the reduction in the number of animals needed without jeopardizing statistical validity.”
The ocular samples were assayed for Ad5 titers by performing a plaque reduction assay. Samples were diluted 1:10 and these dilutions were inoculated onto duplicate wells of a 24 well multi-plate containing A549 monolayers. The virus was adsorbed for 3 hours at 37° C. in a 5% CO2-water vapor atmosphere without constant rocking. After adsorption, 1 mL of medium plus 0.5% methylcellulose was added to each well, and the plates were incubated at 37° C. in a 5% CO2-water vapor atmosphere. After 7 days, the cells were stained with 0.5% gentian violet, and the number of plaques counted using a dissecting microscope (25×). The viral titers were then calculated, and will be expressed as plaque-forming units per milliliter (PFU/mL). Data from the study were analyzed using analysis of variance (ANOVA) with Fisher's pair-wise comparisons and X^2 analyses using True Epistat and/or Minitab statistical software. Significance was established at the P≦0.05 confidence level.

[3] = tested on: Human Adenovirus 8 (Ad8 strain 13306); assay: CPE reduction assay, Adenovirus 8; type: cell-based; conditions: MA104; Adenovirus 8, MA-104 cells
Protocol: (§2) To assess in vitro cytotoxicity, both a cytopathic effects of a virus (CPE) regression assay and a neutral red lysosomal uptake cell viability assay was performed essentially as described in, e.g., Repetto, et al., Neutral Red Uptake Assay for the Estimation of Cell Viability/Cytotoxicity, Nat. Protoc. 3: 1125-1131 (2008), the content of which is hereby incorporated by reference in its entirety. Ninety-six-well plates were seeded with MA-104 cells at 1×10^5 cells/mL and incubated overnight at 37° C. with 5% CO2. […] Each dilution was added to 5 wells of a 96-well plate with 80% to 100% confluent cells, and three wells of each dilution were then infected with one of the two test viruses. Two wells remained uninfected as controls for toxicity. Six wells per plate were set aside as uninfected, untreated cell controls, and six wells per plate were infected with no treatment as virus controls. […] Assay plates were incubated at 37° C. with 5% CO2. […] After CPE reduction assay was completed, a neutral red lysosomal uptake assay was conducted by filling each well with 0.011% (m/v) neutral red, a vital stain. The plates then were incubated for about 2 hours at 37° C. in the dark. […] The plates were then read on a spectrophotometer at 540 nm to quantify the neutral red taken up by the healthy cells. […]

[4] = tested on: Human Adenovirus 5 (AD5 strain NYS #98-1836); assay: microbe, parasite or virus in culture; type: cell-based; conditions: Human mastadenovirus C, MA104, Adenovirus 5, MA-104 cells
Protocol: To assess in vitro cytotoxicity, both a cytopathic effects of a virus (CPE) regression assay and a neutral red lysosomal uptake cell viability assay was performed essentially as described in, e.g., Repetto, et al., Neutral Red Uptake Assay for the Estimation of Cell Viability/Cytotoxicity, Nat. Protoc. 3: 1125-1131 (2008), the content of which is hereby incorporated by reference in its entirety. Ninety-six-well plates were seeded with MA-104 cells at 1×10^5 cells/mL and incubated overnight at 37° C. with 5% CO2. […] Each dilution was added to 5 wells of a 96-well plate with 80% to 100% confluent cells, and three wells of each dilution were then infected with one of the two test viruses. Two wells remained uninfected as controls for toxicity. Six wells per plate were set aside as uninfected, untreated cell controls, and six wells per plate were infected with no treatment as virus controls. […] Assay plates were incubated at 37° C. with 5% CO2. […] After CPE reduction assay was completed, a neutral red lysosomal uptake assay was conducted by filling each well with 0.011% (m/v) neutral red, a vital stain. The plates then were incubated for about 2 hours at 37° C. in the dark. The unincorporated neutral red solution was removed from the wells and the incorporated dye was then eluted by adding Sorensen's citrate-buffered ethanol. The plates were then read on a spectrophotometer at 540 nm to quantify the neutral red taken up by the healthy cells. The optical density of test wells was converted to percent of cell control and normalized to the virus controls.
The concentration of test compound required to inhibit CPE by 50% or reduce red uptake into cells by 50% (EC50) was calculated by regression analysis. The toxicity of the compound without virus present was similarly calculated using the uninfected wells treated with test compounds compared with untreated cell controls. The concentration of compound that would cause 50% cytotoxic effects in the absence of virus (CC50) was estimated by linear regression analysis. The selectivity index (SI) is the CC50 divided by EC50.

[5] = tested on: Human Adenovirus 8 (Ad8 strain 13306); assay: Neutral red lysosomal uptake assay, Adenovirus 8; type: cell-based; conditions: MA104; Adenovirus 8, MA-104 cells
Protocol: as §2

[6] = in vitro; conditions: African green monkey
[7] = tested on: MA-104 cells; conditions: African green monkey

SMILES: Nc1ccn(C[C@@H](CO)OCP(=O)(O)O)c(=O)n1 [CDV, Cidofovir, reference compound]
- Ocular irritation MMTS score, Day 3 ([1]; 3 day): 5.9
- Ocular irritation MMTS score, Day 9 ([1]; 9 day): 27.5
- Ad5-positive ocular samples, percent, Day 1 [2]: 100%
- Ad5-positive ocular samples, percent, Day 3 [2]: 100%
- Ad5-positive ocular samples, percent, Day 4 [2]: 100%
- Ad5-positive ocular samples, percent, Day 5 [2]: 100%
- Ad5-positive ocular samples, percent, Day 7 [2]: 63%
- Ad5-positive ocular samples, percent, Day 11 [2]: 0%
- Ad5-positive ocular samples, percent, Day 14 [2]: 0%
- Ad5-positive ocular samples, percent, Total [2]: 66.1%
- Ad5-positive ocular samples/total eyes, Day 1 [2]: 8/8
- Ad5-positive ocular samples/total eyes, Day 3 [2]: 8/8
- Ad5-positive ocular samples/total eyes, Day 4 [2]: 8/8
- Ad5-positive ocular samples/total eyes, Day 5 [2]: 8/8
- Ad5-positive ocular samples/total eyes, Day 7 [2]: 5/8
- Ad5-positive ocular samples/total eyes, Day 11 [2]: 0/8
- Ad5-positive ocular samples/total eyes, Day 14 [2]: 0/8
- Ad5-positive ocular samples/total eyes, Total [2]: 37/56

SMILES: Nc1ccn([C@H]2CC[C@@H](CO)O2)c(=O)n1 [ddC, 2′, 3′-Dideoxycytidine]
- EC50 [3]: 2.1 µg/mL (≈ 9.94 µM)
- EC50 ([4]; read-out: CPE Reduction Assay EC50): 2.1 µg/mL (≈ 9.94 µM)
- EC50 ([4]; read-out: Neutral Red Assay EC50): 2.7 µg/mL (≈ 12.8 µM)
- EC50 [5]: 2.7 µg/mL (≈ 12.8 µM)
- CC50 [6]: < 5000 µg/mL
- CPE Reduction Assay CC50 [7]: <5000 µg/mL
- Neutral Red Assay CC50 [7]: <5000 µg/mL
